From patent US8906825B2, “Herbicidal compositions comprising 4-amino-3-chloro-5-fluoro-6-(4-chloro-2-fluoro-3-methoxyphenyl) pyridine-2-carboxylic acid or a derivative thereof and triazolopyrimidine sulfonamides” (Dow AgroSciences LLC, priority 2012, dated 2014)

Key:
Type in all cases: in vivo
[1] = tested on: LEFCH (Leptochloa chinensis (L.) Nees, Chinese sprangletop); test: In-water applied herbicidal mixtures, transplanted paddy rice, greenhouse (Example II)
Method: (§1) Weed seeds or nutlets of the desired test plant species were planted in puddled soil (mud) prepared by mixing a shredded, non-sterilized mineral soil (50.5 percent silt, 25.5 percent clay, and 24 percent sand, with a pH of about 7.6 and an organic matter content of about 2.9 percent) and water at a 1:1 volumetric ratio. The prepared mud was dispensed in 365 mL aliquots into 16-ounce (oz.) non-perforated plastic pots with a surface area of 86.59 square centimeters (cm^2) leaving a headspace of 3 centimeters in each pot. Mud was allowed to dry overnight prior to planting or transplanting. Rice seeds were planted in Sun Gro MetroMix® 306 planting mixture, which typically has a pH of 6.0 to 6.8 and an organic matter content of about 30 percent, in plastic plug trays. Seedlings at the second or third leaf stage of growth were transplanted into 840 mL of mud contained in 32-oz. non-perforated plastic pots with a surface area of 86.59 cm^2 4 days prior to herbicide application. The paddy was created by filling the headspace of the pots with 2.5 to 3 cm of water. When required to ensure good germination and healthy plants, a fungicide treatment and/or other chemical or physical treatment was applied. The plants were grown for 4-22 days in a greenhouse with an approximate 14 h photoperiod which was maintained at about 29′C during the day and about 26° C. during the night. Nutrients were added as Osmocote® (19:6:12, N:P:K+minor nutrients) at 2 g per 16-oz. pot and 4 g per 32-oz. pot. Water was added on a regular basis to maintain the paddy flood, and supplemental lighting was provided with overhead metal halide 1000-Watt lamps as necessary. The plants were employed for testing when they reached the first through fourth true leaf stage.
(§2) Treatments consisted of the acid or esters of 4-amino-3-chloro-5-fluoro-6-(4-chloro-2-fluoro-3-methoxy-phenyl)pyridine-2-carboxylic acid (compound A) each formulated as an SC and various herbicidal components alone and in combination. Forms of compound A were applied on an acid equivalent basis.
(§3) Other herbicidal components were applied on an active ingredient basis and included acetolactate synthase (ALS)-inhibiting herbicides (sulfonamide chemical class) penoxsulam formulated as Grasp® SC (GF-443), diclosulam formulated as Strongarm®, and cloransulam-methyl formulated as FirstRate®.
(§4) Treatment requirements for each compound or herbicidal component were calculated based upon the rates being tested, the concentration of active ingredient or acid equivalent in the formulation, an application volume of 2 mL per component per pot, and an application area of 86.59 cm^2 per pot.
(§5) For formulated compounds, a measured amount was placed in an individual 100 or 200 mL glass vial and was dissolved in a volume of 1.25% (v/v) Agri-Dex® crop oil concentrate to obtain each application solution.
(§6) Applications were made by injecting with a pipetter appropriate amounts of the application solutions, individually and sequentially, into the aqueous layer of the paddy. Control plants were treated in the same manner with the solvent blank. Applications were made so that all treated plant material received the same concentrations of acetone and crop oil concentrate.
(§7) The treated plants and control plants were placed in a greenhouse as described above and water was added as needed to maintain a paddy flood. After approximately 3 weeks the condition of the test plants as compared with that of the untreated plants was determined visually and scored on a scale of 0 to 100 percent where 0 corresponds to no injury or growth inhibition and 100 corresponds to complete kill.
(§8) Colby's equation was used to determine the herbicidal effects expected from the mixtures (Colby, S. R. 1967. Calculation of the synergistic and antagonistic response of herbicide combinations. Weeds 15:20-22.).
(§9) The following equation was used to calculate the expected activity of mixtures containing two active ingredients, A and B: Expected=A+B−(A×B/100)

SCPMA (sea clubrush) = test: as above
Method: as §1, §2, §3, §4, §5, §6, §7, §8, §9

[2] = tested on: CYPDI (Cyperus difformis L., smallflower umbrella sedge); test: Postemergence field trials in direct-seeded rice, Greece and Italy (Example IV); details: foliar
Method: (§10) Multiple post-emergence field trials were conducted under field conditions in Tolima, Colombia; Thessaloniki, Greece; Ottobiano and Copiano, Italy; Greenville, Miss. and Eagle Lake, Tex., USA; and water-injected treatments were tested at Ryugasaki, Japan. Trial sites were located in commercially grown fields of direct-seeded rice (Oryza sativa) using standard herbicide small plot research methodology, except in Japan where transplanted rice was utilized for the field trial. Post-emergence trial plot size varied from 2 to 3 meter (m)×5 to 8 m (width×length) with 4 replicates per treatment. Water-injected trial plot size was 2×2 m with 3 replicates per treatment. The rice crop was grown using normal cultural practices for fertilization, seeding, watering, flooding and maintenance to ensure good growth of the crop and the weeds.
(§11) All treatments in the post-emergence field trials were applied using a backpack compressed air/gas sprayer with flat fan nozzles (80° or 110°) calibrated to apply 187 to 300 L/ha spray volume at approximately 200-400 kPa nozzle pressure. In Japan, treatments were water-injected applied where the specified amount of commercial product was mixed in 100 mls of water per replicate and applied directly into 3 cm deep water containing the crop and weeds. Treatments consisted of the benzyl ester of 4-amino-3-chloro-5-fluoro-6-(4-chloro-2-fluoro-3-methoxy-phenyl)pyridine-2-carboxylic acid (Compound A), formulated as an SC (suspension concentrate), and various herbicidal components alone and in combination.
(§12) Commercially available products of penoxsulam (Viper 20OD® (Europe), Grasp 240SC® (USA), and Wideattack 37.5SC® (Japan)) were mixed in water at appropriate formulated product rates to achieve the desired rates based on a unit area of application (hectare) to achieve the desired rates as shown. Treatments were rated at 15 to 56 days after application (DAA) as compared to the untreated control plants. Visual weed control was scored on a scale of 0 to 100 percent where 0 corresponds to no injury and 100 corresponds to complete kill.
(§13) All treatment results, both for the single product and mixtures, are an average of 3 to 4 replicates. The trial sites had naturally occurring populations of weeds. The weed spectrum included, but was not limited to, broadleaf signalgrass (Brachiaria platyphylla (Griseb.) Nash or Urochloa platyphylla (Nash) R.D. Webster, BRAPP), smallflower umbrellaplant (Cyperus difformis L., CYPDI), yellow nutsedge (Cyperus esculentus L., CYPES), multiple Echinochloa species in the same field (ECHSS) in Italy (mixed ECHSS biotypes), Amazon sprangletop (Leptochloa panicoides (J. Presl) A.S. Hitchc., LEFPA), and Japanese bulrush (Schoenoplectus juncoides (Roxb.) Palla, SCPJU).

[3] = tested on: CYPES (Cyperus esculentus L., yellow nutsedge); test: as above; details: foliar
Method: as §10, §11, §12, §13

ECHSS (Echinochloa spp.) = test: as above; details: foliar
Method: as §10, §11, §12, §13

[4] = Compound A Benzyl Ester 24 gae/ha

SMILES | Visual Weed Control (%) - 25 DAA LEFCH Obs ([1]; Compound A Benzyl Ester 8.75 gae/ha) [%] | Visual Weed Control (%) - 25 DAA LEFCH Obs ([1]; Compound A Benzyl Ester 17.5 gae/ha) [%] | Visual Weed Control (%) - 21 DAA SCPMA Obs (SCPMA (sea clubrush); Compound A Benzyl Ester 48 gae/ha) [%] | Visual Weed Control (%) - 21 DAA SCPMA Obs (SCPMA (sea clubrush); Compound A Benzyl Ester 96 gae/ha) [%] | Visual Weed Control (%) - 54-56 DAA CYPDI Obs [2, 4] [%] | Visual Weed Control (%) - 54-56 DAA CYPES Obs [3, 4] [%] | Visual Weed Control (%) - 54-56 DAA ECHSS Obs (ECHSS (Echinochloa spp.); [4]) [%] | Visual Weed Control (%) - 25 DAA LEFCH Obs ([1]; Penoxsulam 17.5 gai/ha, Table 11) [%] | Visual Weed Control (%) - 25 DAA LEFCH Obs ([1]; Penoxsulam 35 gai/ha, Table 10) [%] | Visual Weed Control (%) - 25 DAA LEFCH Obs ([1]; Penoxsulam 35 gai/ha, Table 11) [%] | Visual Weed Control (%) - 21 DAA SCPMA Obs (SCPMA (sea clubrush); Penoxsulam 10 gai/ha) [%] | Visual Weed Control (%) - 21 DAA SCPMA Obs (SCPMA (sea clubrush); Penoxsulam 20 gai/ha) [%] | Visual Weed Control (%) - 21 DAA SCPMA Obs (SCPMA (sea clubrush); Penoxsulam 40 gai/ha) [%] | Visual Weed Control (%) - 54-56 DAA CYPDI Obs ([2]; Penoxsulam 40 gai/ha) [%] | Visual Weed Control (%) - 54-56 DAA CYPES Obs ([3]; Penoxsulam 40 gai/ha) [%] | Visual Weed Control (%) - 54-56 DAA ECHSS Obs (ECHSS (Echinochloa spp.); Penoxsulam 40 gai/ha) [%]
COc1c(Cl)ccc(-c2nc(C(=O)OCc3ccccc3)c(Cl)c(N)c2F)c1F [Compound A Benzyl Ester, benzyl ester of 4-amino-3-chloro-5-fluoro-6-(4-chloro-2-fluoro-3-methoxy-phenyl)pyridine-2-carboxylic acid] | 50 | 90 | 0 | 0 | 81 | 15 | 40 | – | – | – | – | – | – | – | – | –
COc1cnc(OC)n2nc(NS(=O)(=O)c3c(OCC(F)F)cccc3C(F)(F)F)nc12 [Penoxsulam, 2-(2,2-difluoroethoxy)-N-(5,8-dimethoxy[1,2,4]triazolo[1,5-c]pyrimidin-2-yl)-6-(trifluoromethyl)benzenesulfonamide, reference compound] | – | – | – | – | – | – | – | 0 | 40 | 40 | 70 | 88 | 95 | 0 | 55 | 50
